Reference: US4837207A, “Diastereoisomers of n^6 -endo-bicyclo[2.2.1]heptyladenosine as antihypertensives with selective action” (priority 1987, dated 1989)

How the values were obtained:
[1] = Antihypertensive evaluation (AHP3); type: in vivo; conditions: AHP3 antihypertensive assay; Table 2; read-out: ED40 (Dose causing a 40 nm drop in blood pressure)
From the text: *Dose causing a […] drop in blood pressure, mg/kg.

A1 adenosine receptor = biological target: T1, A1 adenosine receptor (Rattus norvegicus, UniProt P25099); test: adenosine A1 receptor binding affinity; conditions: Table 1, n = 2 (mixture, VII'), n = 1 (VII"), read-out: A1 IC50 ± SE
T1 construct: from tissue
T1 sequence (P25099 1-326): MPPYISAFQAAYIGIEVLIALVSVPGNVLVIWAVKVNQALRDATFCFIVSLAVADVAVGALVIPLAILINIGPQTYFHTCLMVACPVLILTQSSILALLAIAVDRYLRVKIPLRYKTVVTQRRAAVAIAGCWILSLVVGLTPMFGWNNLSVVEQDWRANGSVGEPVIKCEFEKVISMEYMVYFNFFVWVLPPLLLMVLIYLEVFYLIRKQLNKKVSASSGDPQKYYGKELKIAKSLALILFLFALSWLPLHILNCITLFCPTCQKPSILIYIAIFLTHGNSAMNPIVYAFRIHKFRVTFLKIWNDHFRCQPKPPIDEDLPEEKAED

IC50 (A1 adenosine receptor) [nM] | Compound | ED (40 mm drop in blood pressure) [1] [mg/kg]
0.738 ± 0.088 | OC[C@H]1O[C@@H](n2cnc3c(NC4CC5CCC4C5)ncnc32)[C@H](O)[C@@H]1O (mixture of isomers) [Diastereomeric mixture, N^6-endo-bicyclo[2.2.1]heptyl adenosine] | 0.6
 | OC[C@H]1O[C@@H](n2cnc3c(N[C@H]4C[C@H]5CC[C@@H]4C5)ncnc32)[C@H](O)[C@@H]1O [Example 1 (VII'), (1R-endo)-N-Bicyclo[2.2.1]hept-2-yl adenosine] | 0.16
2.63 | OC[C@H]1O[C@@H](n2cnc3c(N[C@@H]4C[C@@H]5CC[C@H]4C5)ncnc32)[C@H](O)[C@@H]1O [Example 2 (VII"), (1S-endo)-N-Bicyclo[2.2.1]hept-2-yl adenosine] | 0.7
